Reference: ChEMBL document CHEMBL1151958, “Improving metabolic stability by glycosylation: bifunctional peptide derivatives that are opioid receptor agonists and neurokinin 1 receptor antagonists” (J Med Chem, 2009)
pIC50: −log10 of the molar value.

What was measured:
Mu-type opioid receptor = Mu-type opioid receptor (Rattus norvegicus, UniProt P33535); experiment: Displacement of [3H]DAMGO from rat mu opioid receptor expressed in mouse HN9.10 cell membrane; type: cell membranes
Substance-P receptor [1] = target: Substance-P receptor (Homo sapiens, UniProt P25103); experiment: Displacement of [3H]substance P from human NK1 receptor expressed in CHO cell membrane; type: cell membranes
Chain of Substance-P receptor (Homo sapiens, UniProt P25103) (P25103 whole entry): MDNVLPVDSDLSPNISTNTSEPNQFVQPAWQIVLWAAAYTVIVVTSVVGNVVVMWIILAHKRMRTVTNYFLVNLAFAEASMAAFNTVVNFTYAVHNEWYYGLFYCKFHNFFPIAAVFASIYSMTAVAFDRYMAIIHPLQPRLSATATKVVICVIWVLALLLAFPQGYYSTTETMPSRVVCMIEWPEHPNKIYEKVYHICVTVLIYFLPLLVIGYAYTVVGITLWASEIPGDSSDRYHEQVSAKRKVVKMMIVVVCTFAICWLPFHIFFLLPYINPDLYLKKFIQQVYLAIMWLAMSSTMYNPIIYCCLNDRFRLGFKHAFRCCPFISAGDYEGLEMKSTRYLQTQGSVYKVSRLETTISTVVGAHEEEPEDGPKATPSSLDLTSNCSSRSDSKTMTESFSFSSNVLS

[2] = target: Delta-type opioid receptor (Homo sapiens, UniProt P41143); experiment: Displacement of [3H]DPDPE from human delta opioid receptor expressed in mouse HN9.10 cell membrane; type: cell membranes
Chain of Delta-type opioid receptor (P41143 whole entry): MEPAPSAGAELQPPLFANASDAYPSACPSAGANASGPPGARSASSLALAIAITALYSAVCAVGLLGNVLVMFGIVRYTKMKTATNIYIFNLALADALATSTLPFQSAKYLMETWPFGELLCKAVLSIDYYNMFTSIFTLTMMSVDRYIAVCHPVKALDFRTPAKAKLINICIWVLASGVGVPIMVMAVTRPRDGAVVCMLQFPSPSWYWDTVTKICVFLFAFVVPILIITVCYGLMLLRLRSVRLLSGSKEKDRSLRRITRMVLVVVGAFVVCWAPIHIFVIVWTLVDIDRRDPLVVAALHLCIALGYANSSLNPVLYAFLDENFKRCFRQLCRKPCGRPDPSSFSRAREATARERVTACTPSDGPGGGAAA

Substance-P receptor [3] = target: Substance-P receptor (Rattus norvegicus, UniProt P14600); experiment: Displacement of [3H]substance P from rat NK1 receptor expressed in CHO cell membrane; type: cell membranes
Chain of Substance-P receptor (Rattus norvegicus, UniProt P14600) (P14600 whole entry): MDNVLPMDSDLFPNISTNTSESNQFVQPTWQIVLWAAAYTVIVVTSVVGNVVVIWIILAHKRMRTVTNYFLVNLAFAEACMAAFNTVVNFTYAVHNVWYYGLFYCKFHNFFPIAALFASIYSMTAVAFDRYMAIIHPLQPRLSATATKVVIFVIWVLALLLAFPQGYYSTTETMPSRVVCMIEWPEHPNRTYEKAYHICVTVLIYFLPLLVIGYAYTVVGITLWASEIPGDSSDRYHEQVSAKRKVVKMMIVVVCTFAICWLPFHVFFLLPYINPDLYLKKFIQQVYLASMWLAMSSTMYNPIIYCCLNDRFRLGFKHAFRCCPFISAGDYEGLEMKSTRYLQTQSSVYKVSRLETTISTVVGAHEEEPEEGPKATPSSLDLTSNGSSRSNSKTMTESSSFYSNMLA

[4] = Metabolic stability in rat plasma assessed as half life at 37 degC; type: ADME, cell-free

Chain of Mu-type opioid receptor (P33535 whole entry): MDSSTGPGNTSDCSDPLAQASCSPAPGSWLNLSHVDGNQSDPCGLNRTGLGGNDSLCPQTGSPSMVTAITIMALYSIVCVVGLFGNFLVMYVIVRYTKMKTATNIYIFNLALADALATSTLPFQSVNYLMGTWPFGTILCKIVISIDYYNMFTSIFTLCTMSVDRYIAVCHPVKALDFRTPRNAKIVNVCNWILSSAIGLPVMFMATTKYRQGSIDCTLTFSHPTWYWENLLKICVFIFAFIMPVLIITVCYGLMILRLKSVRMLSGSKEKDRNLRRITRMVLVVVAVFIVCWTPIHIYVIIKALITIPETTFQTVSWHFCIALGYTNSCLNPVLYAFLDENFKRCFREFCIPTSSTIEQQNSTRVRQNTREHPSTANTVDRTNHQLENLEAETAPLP

CCCC[C@H](NC(=O)[C@H](Cc1ccccc1)NC(=O)CNC(=O)[C@@H](C)NC(=O)[C@@H](N)Cc1ccc(O)cc1)C(=O)N[C@@H](CO[C@@H]1O[C@H](CO)[C@@H](O)[C@H](O)[C@H]1O)C(=O)N[C@@H](CC(C)C)C(=O)N[C@@H](Cc1c[nH]c2ccccc12)C(=O)NCc1cc(C(F)(F)F)cc(C(F)(F)F)c1
pIC50 (Mu-type opioid receptor): 5.15 | pIC50 (Substance-P receptor [1]): 8.38

CC(C)C[C@H](NC(=O)[C@@H]1CCCN1C(=O)[C@H](CO[C@@H]1O[C@H](CO)[C@@H](O)[C@H](O)[C@H]1O)NC(=O)[C@H](Cc1ccccc1)NC(=O)CNC(=O)[C@@H](C)NC(=O)[C@@H](N)Cc1ccc(O)cc1)C(=O)N[C@@H](Cc1c[nH]c2ccccc12)C(=O)NCc1cc(C(F)(F)F)cc(C(F)(F)F)c1
pIC50 [2]: 6.91 | pIC50 (Mu-type opioid receptor): 6.12 | pIC50 (Substance-P receptor [1]): 12.21 | pIC50 (Substance-P receptor [3]): 8.35

CCCC[C@H](NC(=O)[C@H](Cc1ccccc1)NC(=O)CNC(=O)[C@@H](C)NC(=O)[C@@H](N)Cc1ccc(O)cc1)C(=O)N1CCC[C@H]1C(=O)N[C@@H](CO[C@@H]1O[C@H](CO)[C@@H](O)[C@H](O)[C@H]1O)C(=O)N[C@@H](Cc1c[nH]c2ccccc12)C(=O)NCc1cc(C(F)(F)F)cc(C(F)(F)F)c1
half-life [4]: > 6 h | pIC50 [2]: 8.10 | pIC50 (Mu-type opioid receptor): 7.77 | pIC50 (Substance-P receptor [3]): 7.30

CCCC[C@H](NC(=O)[C@H](Cc1ccccc1)NC(=O)CNC(=O)[C@@H](C)NC(=O)[C@@H](N)Cc1ccc(O)cc1)C(=O)N1CCC[C@H]1C(=O)N[C@@H](CC(C)C)C(=O)N[C@@H](Cc1c[nH]c2ccccc12)C(=O)NCc1cc(C(F)(F)F)cc(C(F)(F)F)c1
half-life [4]: > 6 h | pIC50 [2]: 8.67 | pIC50 (Substance-P receptor [1]): 11.57
